Peptide text beside a SMILES is read from it.

In assay [1] the test system is wild-type (WT) isolated female gonads. The experiment in a line: Gonad spawning assay, wild-type isolated gonads. Also on record: species or system Clytia hemisphaerica. Conditions: for Gonads spawning (number) / Percentage of spawning gonads: 4mM BrcAMP. As to the method:
(§1) We performed a series of oocyte maturation and spawning assays, comparing the responses of wild-type and MIHR mutant isolated gonads and oocytes to different stimuli (Fig 4).
(§2) Sexually mature MIHR mutant medusae from colonies n5-13 and n5-23 and wild-type medusae were cultured on the same day–night cycle. Individual gonads were dissected in the evening after afternoon spawning. To test the light response, one group of each was transferred to 100 μL MFSW in wells of 96-well plastic plates, covered overnight, and re-exposed to white light the following day. To test responses to MIH and cAMP, other groups of dissected gonads were cultured overnight in constant light, then transferred to 96-well plastic plates for two hours. MIH was added to wells as an equal volume of 200 nM WPRPamide (GenScript) stock in MFSW was added to give a final concentration of 100 nM. Alternatively, a stock of 20 mM bromo adenosine 3′,5′cyclic monophosphate (Br-cAMP–Fluka; Sigma Aldrich) in distilled water was added to give a final concentration of 4 mM. Gonads were washed after 5 minutes incubation in Br-cAMP. Oocyte maturation was scored after 30 minutes as germinal vesicle breakdown (GVBD), i.e., visible dissolution of the oocyte nuclear membrane upon entry into M phase, which in all cases was followed by spawning about 1 hour later.
(§3) Supplementary file pbio.3000614.s013.xlsx: S3 Data Numerical data corresponding to Fig 4A and 4C. The first tab collects all the raw data from 3 independent gonad spawning assays. Information corresponding to the Fisher exact tests is also shown. […] The means and standard deviations were used to prepare the graph in Fig 4C. Information corresponding to the Fisher exact tests is also shown. (XLSX) Click here for additional data file.

In assay [2] the test system is MIHR mutant (n5-23, n5-13) isolated female gonads. Nature of the assay: Gonad spawning assay, MIHR mutant isolated gonads. Also on record: species or system Clytia hemisphaerica. The settings on record: for Gonads spawning (number) / Percentage of spawning gonads: 4mM BrcAMP, MIH R K.O. As to the method:
as §1, §2, §3

In assay [3] the test system is fully grown oocytes isolated from WT gonads. The experiment in a line: Oocyte maturation assay, wild-type isolated oocytes (GVBD). The format is cell-based, Clytia hemisphaerica. Conditions: for Oocyte maturation (number) / Percentage of Oocytes maturing: 4mM BrcAMP, wild type.
Excerpt: (§4) Fig 4 Oocyte maturation failure in MIHR mutant medusae. Oocyte maturation assays performed using isolated gonads (A, B) or isolated oocytes (C) from MIHR mutant jellyfish compared to WT. In A and C, bar heights represent mean percentages of 3 independent experiments and error bars show standard deviations. Total gonad or oocyte numbers for each treatment are indicated in gray. (A) Spawning response of isolated gonads from WT and n5-23 female medusae. Three treatments were compared as indicated above each panel: Light: light stimulation after incubation in the dark; MIH: treatment of light-maintained gonads with 100 nM WPRPamide; cAMP: treatment of light-maintained gonads with 4 mM Br-cAMP. […] Full datasets from three independent experiments are available in S3 Data. (B) Light microscope images illustrating gonads from an equivalent experiment performed with n5-13 female MIHR mutant medusae 120 minutes after the indicated treatments. Scale bar: 500 μm. […] Full datasets from 3 independent experiments are available in S3 Data. Br-cAMP, bromoadenosine 3′,5′-cyclic monophosphate; cAMP, cyclic adenosine monophosphate; KO, knockout; MIH, maturation-inducing hormone; MIHR, MIH receptor; WT, wild-type.
(§5) Fully grown oocytes were isolated manually from dissected gonads of wild-type and MIHR KO mutant jellyfish prepared as above. Maturation assays were performed in wells of 96-well plates or small plastic petri dishes lined with 2% agarose in MFSW. Spontaneous maturation occurs at a low frequency in control oocytes. To test MIH-induced maturation, 10 μL WPRPamide from 1 μM solution in MFSW was added to a final concentration of 100 nM. In some experiments, Br-cAMP from a 20 mM stock in H2O was used at a final concentration of 4 mM. GVBD was scored at 30 minutes, every 5 minutes, depending on experiments.
as §3

Assay [4] deals with fully grown oocytes isolated from MIHR mutant (n5-23) gonads. The experiment in a line: Oocyte maturation assay, MIHR mutant isolated oocytes (GVBD). The format is cell-based, Clytia hemisphaerica. The settings on record: for Oocyte maturation (number) / Percentage of Oocytes maturing: 4mM BrcAMP, MIH R K.O.
Excerpt: as §4, §5, §3

Assay [5] has as its system Clytia MIHR. The experiment in a line: GPCR deorphanization assay, luminescence response to peptides at 1 μM (CHO-K1 cells, Gα-16, GFP-apoaequorin). The class given is cell-based, Clytia hemisphaerica. The settings on record: peptide 1E-6M, normalised to Platynereis FLamide receptor + 1 μM AKYFL-NH2, n = 3. The source says: We used a cell culture–based GPCR deorphanization assay to identify the MIH receptor from our candidate shortlist. cDNAs for each candidate were transfected into Chinese Hamster ovary K1 (CHO-K1) cells along with the promiscuous Gα protein Gα-16, and an aequorin-GFP luminescence reporter that measures Ca^2+ mobilization downstream of this heterologous Gα protein [27, 28]. We first screened the 16 candidate Clytia GPCRs against a mixture of 33 synthetic amidated peptides (including MIHs) predicted to be generated from previously identified putative Clytia neuropeptide precursors and one additional one identified from transcriptome data. Given our imperfect knowledge of pro-peptide processing in cnidarians, some of the synthetic peptides may not correspond to endogenous peptides. Only one of the 16 GPCRs was activated by this peptide mixture. This receptor responded well to all 4 synthetic Clytia MIH tetrapeptides, as well as to related Cladonema MIH peptides that can also activate Clytia oocyte maturation, but not to other Clytia peptide mixtures or poorly active MIH penta-/tripeptides. We termed this Clytia GPCR the Maturation Inducing Hormone Receptor (MIHR). The activity of individual peptides at 1 μM to stimulate the MIHR closely matched their in vivo ability to induce oocyte maturation (Fig 1B).
(§6) Cell culture GPCR ligand response assays were performed as described. Briefly, CHO-K1 cells were cultured in Ham’s F12 Nut Mix medium (Thermo Fisher Scientific) with 10% foetal bovine serum. Cells were seeded in 96-well plates at approximately 10,000 cells/well and transfected the following day with pcDNA3.1(+) plasmids encoding each of the 16 candidate Clytia GPCRs (S2 Text), the promiscuous Gα-16 protein [65], and a reporter construct GFP-apoaequorin [66] (60 ng each) using the transfection reagent TurboFect (Thermo Fisher Scientific). After 2 days of expression, the medium was removed and replaced with Hank’s balanced salt solution (HBSS) supplemented with 1.8 mM Ca2+, 10 mM glucose, and […] coelenterazine h (Promega, Madison, WI). After incubation at 37 °C for 2 hours, cells were tested by adding synthetic peptides (GenScript) in HBSS supplemented with 1.8 mM Ca2^+ and 10 mM glucose. A list of all synthetic peptides used is provided in S2 Table. Luminescence was recorded for 45 seconds in a plate reader (BioTek Synergy Mx or Synergy H4; BioTek, Winooski, VT). Data were integrated over the 45-second measurement period and recorded as technical triplicates in each case. Data were normalized using the response of Platynereis FLamide receptor to 1 μM AKYFL-NH2 [28]. Dose–response curves were obtained using concentrations between 0.01 nM and 100 μM for each peptide. Data for dose–response curves were recorded in triplicate for each concentration and the experiment was repeated independently 3 times. Dose–response curves were fitted with a four-parameter curve using Prism 6 (GraphPad, La Jolla, CA) and were normalized to the calculated upper plateau values (100% activation).
Supplementary file pbio.3000614.s011.xlsx: S1 Data Numerical data corresponding to Fig 1B. Raw luminescence values obtained in triplicate for each of the neuropeptide combinations tested against the MIHR in the deorphanization assay are provided. In the right-hand table, the raw luminescence values obtained in quadruple for the positive and negative controls are provided. In the lower table, means and standard errors of the mean of the luminescence values obtained for each neuropeptide combination and controls are also shown, as well as the values normalized to the positive control, which were used to prepare the graph shown in Fig 1B. MIHR, MIH receptor. (XLSX) Click here for additional data file.

Assay [6] deals with Clytia MIHR. The experiment in a line: Dose–response curves of Clytia MIHR, luminescence (CHO-K1 cells, Gα-16, GFP-apoaequorin). The format is cell-based, Clytia hemisphaerica. Also on record: key to Span (best-fit value) / Bottom (best-fit value): % activation, normalized to fitted upper plateau (100%). Conditions: for EC50: four-parameter fit, variable slope, triplicate; for HillSlope / LogEC50: best-fit value; for Span / Top: best-fit value (luminescence). As to the method: The Clytia MIH amidated peptides are produced from two precursor genes Che-pp4 (generating multiple copies of WPRAamide, WPRYamide, and WPRPamide) and Che-pp1 (multiple copies of WPRPamide and RPRGamide).
as §6
Supplementary file pbio.3000614.s012.xlsx: S2 Data Numerical data corresponding to Fig 1C. The first three tabs show statistical values obtained using Prism 6 software (GraphPad, La Jolla, CA) from the raw luminescence values for 3 independent dose–response experiments. The raw luminescence values are shown, as well as the values normalized with respect to the maximum. […] MIH, maturation-inducing hormone. (XLSX) Click here for additional data file.

[7] abbreviates: wild type, replicate 1, total 12.
[8] abbreviates: wild type, replicate 2, total 10.
Where [9] appears, read: wild type, replicate 3, total 10.
Where [10] appears, read: BrcAMP, pooled n=32, Fisher exact test vs MIHR KO not significant at p < .01.
The mark [11] stands for this setting: BrcAMP, pooled n=29, Fisher exact test vs WT not significant at p < .01.
[12] abbreviates: BrcAMP, pooled n=59, Fisher exact test vs MIHR KO 0.215946, not significant at p < .01.
The mark [13] stands for this setting: BrcAMP, pooled n=92, Fisher exact test vs WT 0.215946, not significant at p < .01.
Where [14] appears, read: log(agonist) vs. response, variable slope (four parameters), fit of third dataset.

For the molecule `Nc1ncnc2c1nc(Br)n2[C@@H]1O[C@@H]2COP(=O)(O)O[C@H]2[C@H]1O` [BrcAMP], the “Gonads spawning (number)” value in assay [1] (setting [7]) is 12; in assay [1] (setting [8]) it was 10; in assay [1] (setting [9]), 10; in assay [2] (replicate 1, total 4) it was 4; in assay [2] (replicate 2, total 18), 18; in assay [2] (replicate 3, total 7), 7. Further, the “Percentage of spawning gonads” value is recorded as 100 in assay [1] (setting [7]); 100 in assay [1] (setting [8]); 100 in assay [1] (setting [9]); 100 in assay [2] (replicate 1, total 4); 100 in assay [2] (replicate 2, total 18); 100 in assay [2] (replicate 3, total 7). In addition, in assay [1] (setting [10]), the “Non-spawning gonads, WT NO” value was 0. Besides, the “Spawning gonads, WT YES” value in assay [1] (setting [10]) turned out to be 32. Besides, the “Percentage of spawning gonads (summary)” value came out at 100 in assay [1] (BrcAMP, wild type, summary of 3 replicates) and 100 in assay [2] (BrcAMP, MIHR K.O., summary of 3 replicates). For the same molecule, in assay [2] (setting [11]), the “Non-spawning gonads, MIHR KO NO” value stood at 0. In assay [2] (setting [11]), the “Spawning gonads, MIHR KO YES” value was determined as 29. Also, the “Oocyte maturation (number)” value in assay [3] (replicate 1, total 15) amounted to 15; in assay [3] (replicate 2, total 26), 21; in assay [3] (replicate 3, total 18.00), 13; in assay [4] (replicate 1, total 31), 30; in assay [4] (replicate 2, total 14), 12; in assay [4] (replicate 3, total 47.00), 41. In addition, the “Percentage of Oocytes maturing” value is given as 100.00 in assay [3] (replicate 1, total 15); 80.77 in assay [3] (replicate 2, total 26); 72.22 in assay [3] (replicate 3, total 18.00); 96.77 in assay [4] (replicate 1, total 31); 85.71 in assay [4] (replicate 2, total 14); 87.23 in assay [4] (replicate 3, total 47.00). For the same molecule, the “% oocytes maturing, pooled” value in assay [3] (BrcAMP, WT, pooled n=59) is listed as 83.0508%; in assay [4] (BrcAMP, MIHR KO, pooled n=92), 90.2174%. In addition, in assay [3] (setting [12]), the “Maturing oocytes, WT YES” value was 49. In addition, the “Non-maturing oocytes, WT NO” value in assay [3] (setting [12]) is 10. In addition, the “Maturing oocytes, MIHR KO YES” value in assay [4] (setting [13]) amounted to 83. Further, the “Non-maturing oocytes, MIHR KO NO” value in assay [4] (setting [13]) worked out at 9.
Regarding `N=C(N)NCCC[C@H](NC(=O)[C@@H]1CCCN1C(=O)[C@@H](N)CCCNC(=N)N)C(=O)NCC(N)=O` [RPRGa] (H-RPRG-NH2; N-terminus assumed), the “Normalised response (to positive control), mean” value in the assay on Clytia MIHR [5] is 0.2052. Besides, the EC50 with Clytia MIHR [6] (dataset/experiment 1) was determined as 0.724 µM. Moreover, in the assay with Clytia MIHR [6] (dataset/experiment 2), the EC50 was determined as 2.21 µM. In the assay with Clytia MIHR [6] (first dataset), the HillSlope amounted to 1.15, the LogEC50 is -6.14, the Span was determined as 80378 and the Top amounted to 82566. Also, in the assay on Clytia MIHR [6] (setting [14]), the “HillSlope (best-fit value)” value is reported as 1.139, the “LogEC50 (best-fit value)” value is -5.859 and the “Span (best-fit value)” value turned out to be 89.45. For the same molecule, in the assay on Clytia MIHR [6] (second dataset), the HillSlope was 0.9524, the LogEC50 is listed as -5.656, the Span was found to be 33216 and the Top came to 36059. For the same molecule, the “EC50 / relative activity on MIHR” value with Clytia MIHR [6] (three independent dose–response experiments) is reported as “the lowest”.
On to AWPRP-NH2 [AWPRPa], for which the “Normalised response (to positive control), mean” value with Clytia MIHR [5] was found to be 0.02128.
Same read-out and setting: under “RPRP-NH2 [RPRPa, Cladonema MIH tetrapeptide, RPRP-NH2]” stands 0.33.

As a reminder, the EC50 is the concentration giving half of the maximal effect.

(Values after PMC7053711, “A G protein–coupled receptor mediates neuropeptide-induced oocyte maturation in the jellyfish Clytia” (PLoS Biology, 2020).)
